From ChEMBL document CHEMBL1127025, “(E)-3-[[[[6-(2-carboxyethenyl)-5-[[8-(4- methoxyphenyl)octyl]oxy]-2-pyridinyl]-methyl]thio]methyl]benzoic acid: a novel high-affinity leukotriene B4 receptor antagonist” (J Med Chem, 1993)

Assays:
[1] = target: T1, Leukotriene B4 receptor 1 (Homo sapiens, UniProt Q15722); experiment: Binding affinity against LTB4 receptors in human PMNs
[2] = target: T1, Leukotriene B4 receptor 1; experiment: Inhibitory concentration against LTB4 receptors in human PMNs
Mus musculus [3] = experiment: Effective dose for neutrophil infiltration after administration of 1 mg of arachidonic acid in mouse ear; format: functional
Mus musculus [4] = experiment: Effective dose for edematous response after administration of 1 mg of arachidonic acid in mouse ear; format: functional
Mus musculus [5] = species: Mus musculus; experiment: Inhibition of LTB4-induced PMN infiltration at 250 ng/mL in mouse; format: functional
Homo sapiens = species: Homo sapiens; experiment: Inhibitory concentration against LTB4 induced degranulation in human PMNs; format: functional

T1 sequence (Q15722 whole entry): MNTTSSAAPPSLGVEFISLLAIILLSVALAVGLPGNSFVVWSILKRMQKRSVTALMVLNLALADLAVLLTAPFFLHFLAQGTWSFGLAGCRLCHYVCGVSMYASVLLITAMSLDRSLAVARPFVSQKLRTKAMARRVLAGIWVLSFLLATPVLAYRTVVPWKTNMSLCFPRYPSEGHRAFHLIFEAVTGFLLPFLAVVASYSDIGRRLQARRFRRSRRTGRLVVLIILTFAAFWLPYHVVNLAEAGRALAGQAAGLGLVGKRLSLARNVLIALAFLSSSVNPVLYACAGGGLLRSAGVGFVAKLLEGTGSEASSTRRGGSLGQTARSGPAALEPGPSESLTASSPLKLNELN

| Compound | Ki [1] [nM] | IC50 [2] [nM] | ED50 (Mus musculus [3]) [mg ear-1] | ED50 (Mus musculus [4]) [mg ear-1] | ED50 (Mus musculus [5]) [mg/kg] | IC50 (Homo sapiens) [nM] |
| --- | --- | --- | --- | --- | --- | --- |
| CCCCCCCCCCOc1ccc(CC(O)c2cccc(C(=O)O)c2)nc1/C=C/C(=O)O (configuration not stated) | 280 |  |  |  |  |  |
| COc1ccc(CCCCCCCCOc2ccc(CSCc3cccc(C(=O)O)c3)nc2/C=C/C(=O)O)cc1 | 7.1 | 131 | 0.39 | 0.58 | 7.1 | 268 |
